# Key:
# Test in all cases: relative viability (nuclei count vs DMSO), 5 days (fraction); higher = more cells survive
# Alpelisib + Luminespib = compound: Cc1nc(NC(=O)N2CCC[C@H]2C(N)=O)sc1-c1ccnc(C(C)(C)C(F)(F)F)c1 [Alpelisib] + CCNC(=O)c1noc(-c2cc(C(C)C)c(O)cc2O)c1-c1ccc(CN2CCOCC2)cc1 [Luminespib] (partner 0.01 µM)
# Procedure, shortened: (§1)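 Lung cancer cell lines in 1536-well plates were dosed by pin tool the day after seeding, either with one drug alone or with a fixed anchor-drug dose plus five library-drug doses (not always all listed) in √10 steps. After 5 days, cells were fixed and their nuclei stained in one step (final 0.05% Triton X-100, 1% formaldehyde, 1 ug/ml Hoechst), then counted on 4× images. Relative viability is the nuclei count in treated wells divided by that in vehicle wells. Values are medians of duplicate plates.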
# Alpelisib + Dasatinib = compound: Cc1nc(NC(=O)N2CCC[C@H]2C(N)=O)sc1-c1ccnc(C(C)(C)C(F)(F)F)c1 [Alpelisib] + Cc1nc(Nc2ncc(C(=O)Nc3c(C)cccc3Cl)s2)cc(N2CCN(CCO)CC2)n1 [Dasatinib] (partner 0.075 µM)
# Procedure, shortened: as §1
# Alpelisib + Navitoclax = compound: Cc1nc(NC(=O)N2CCC[C@H]2C(N)=O)sc1-c1ccnc(C(C)(C)C(F)(F)F)c1 [Alpelisib] + CC1(C)CCC(c2ccc(Cl)cc2)=C(CN2CCN(c3ccc(C(=O)NS(=O)(=O)c4ccc(N[C@H](CCN5CCOCC5)CSc5ccccc5)c(S(=O)(=O)C(F)(F)F)c4)cc3)CC2)C1 [Navitoclax] (partner 0.5 µM)
# Procedure, shortened: as §1
# Vemurafenib + Crizotinib = compound: CCCS(=O)(=O)Nc1ccc(F)c(C(=O)c2c[nH]c3ncc(-c4ccc(Cl)cc4)cc23)c1F [Vemurafenib] + C[C@@H](Oc1cc(-c2cnn(C3CCNCC3)c2)cnc1N)c1c(Cl)ccc(F)c1Cl [Crizotinib] (partner 1 µM)
# Procedure, shortened: as §1
cell line,measurement,setting,value
PC-14,relative viability,Alpelisib + Luminespib; first compound 0.04 µM,0.154
same,relative viability,Alpelisib + Luminespib; first compound 0.4 µM,0.168
same,relative viability,Alpelisib + Luminespib; first compound 1.265 µM,0.13
same,relative viability,Alpelisib + Luminespib; first compound 4 µM,0.144
same,relative viability,Alpelisib + Dasatinib; first compound 0.04 µM,0.256
same,relative viability,Alpelisib + Dasatinib; first compound 0.1265 µM,0.243
same,relative viability,Alpelisib + Dasatinib; first compound 0.4 µM,0.23
same,relative viability,Alpelisib + Dasatinib; first compound 1.265 µM,0.221
same,relative viability,Alpelisib + Dasatinib; first compound 4 µM,0.202
same,relative viability,Alpelisib + Navitoclax; first compound 0.04 µM,0.984
same,relative viability,Alpelisib + Navitoclax; first compound 0.1265 µM,1.08
same,relative viability,Alpelisib + Navitoclax; first compound 0.4 µM,1.16
same,relative viability,Alpelisib + Navitoclax; first compound 1.265 µM,0.913
same,relative viability,Alpelisib + Navitoclax; first compound 4 µM,0.945
same,relative viability,Vemurafenib + Crizotinib; first compound 0.03162 µM,0.749
same,relative viability,Vemurafenib + Crizotinib; first compound 0.3162 µM,0.849
same,relative viability,Vemurafenib + Crizotinib; first compound 1 µM,0.852
RERF-LC-KJ,relative viability,Alpelisib + Luminespib; first compound 0.04 µM,1.32
same,relative viability,Alpelisib + Luminespib; first compound 0.1265 µM,1.16
same,relative viability,Alpelisib + Luminespib; first compound 0.4 µM,1.36
same,relative viability,Alpelisib + Luminespib; first compound 1.265 µM,0.917
same,relative viability,Alpelisib + Luminespib; first compound 4 µM,1.03
same,relative viability,Alpelisib + Dasatinib; first compound 0.04 µM,0.766
same,relative viability,Alpelisib + Dasatinib; first compound 0.1265 µM,0.733
same,relative viability,Alpelisib + Dasatinib; first compound 0.4 µM,0.758
same,relative viability,Alpelisib + Dasatinib; first compound 1.265 µM,0.475
same,relative viability,Alpelisib + Dasatinib; first compound 4 µM,0.541
same,relative viability,Alpelisib + Navitoclax; first compound 0.04 µM,0.768
same,relative viability,Alpelisib + Navitoclax; first compound 0.1265 µM,0.931
same,relative viability,Alpelisib + Navitoclax; first compound 0.4 µM,0.935
same,relative viability,Alpelisib + Navitoclax; first compound 1.265 µM,0.626
same,relative viability,Alpelisib + Navitoclax; first compound 4 µM,0.741
same,relative viability,Vemurafenib + Crizotinib; first compound 0.03162 µM,0.838
same,relative viability,Vemurafenib + Crizotinib; first compound 0.1 µM,0.834
same,relative viability,Vemurafenib + Crizotinib; first compound 0.3162 µM,0.832
same,relative viability,Vemurafenib + Crizotinib; first compound 1 µM,0.922
SK-LU-1,relative viability,Alpelisib + Luminespib; first compound 0.04 µM,0.199
same,relative viability,Alpelisib + Luminespib; first compound 0.1265 µM,0.222
same,relative viability,Alpelisib + Luminespib; first compound 0.4 µM,0.202
same,relative viability,Alpelisib + Luminespib; first compound 1.265 µM,0.175
same,relative viability,Alpelisib + Luminespib; first compound 4 µM,0.152
same,relative viability,Alpelisib + Dasatinib; first compound 0.04 µM,0.141
same,relative viability,Alpelisib + Dasatinib; first compound 0.1265 µM,0.149
same,relative viability,Alpelisib + Dasatinib; first compound 0.4 µM,0.133
same,relative viability,Alpelisib + Dasatinib; first compound 1.265 µM,0.128
same,relative viability,Alpelisib + Dasatinib; first compound 4 µM,0.0997
same,relative viability,Alpelisib + Navitoclax; first compound 0.04 µM,0.781
same,relative viability,Alpelisib + Navitoclax; first compound 0.1265 µM,0.788
same,relative viability,Alpelisib + Navitoclax; first compound 0.4 µM,0.845
same,relative viability,Alpelisib + Navitoclax; first compound 1.265 µM,0.814
same,relative viability,Alpelisib + Navitoclax; first compound 4 µM,0.654
same,relative viability,Vemurafenib + Crizotinib; first compound 0.03162 µM,0.855
same,relative viability,Vemurafenib + Crizotinib; first compound 0.1 µM,0.905
same,relative viability,Vemurafenib + Crizotinib; first compound 0.3162 µM,0.664
same,relative viability,Vemurafenib + Crizotinib; first compound 1 µM,0.72
SK-MES-1,relative viability,Alpelisib + Luminespib; first compound 0.04 µM,0.675
same,relative viability,Alpelisib + Luminespib; first compound 0.1265 µM,0.561
same,relative viability,Alpelisib + Luminespib; first compound 0.4 µM,0.733
same,relative viability,Alpelisib + Luminespib; first compound 1.265 µM,0.527
same,relative viability,Alpelisib + Luminespib; first compound 4 µM,0.464
same,relative viability,Alpelisib + Dasatinib; first compound 0.04 µM,0.332
same,relative viability,Alpelisib + Dasatinib; first compound 0.1265 µM,0.334
same,relative viability,Alpelisib + Dasatinib; first compound 0.4 µM,0.438
same,relative viability,Alpelisib + Dasatinib; first compound 1.265 µM,0.17
same,relative viability,Alpelisib + Dasatinib; first compound 4 µM,0.191
same,relative viability,Alpelisib + Navitoclax; first compound 0.04 µM,1.16
same,relative viability,Alpelisib + Navitoclax; first compound 0.1265 µM,1.25
same,relative viability,Alpelisib + Navitoclax; first compound 0.4 µM,1.29
same,relative viability,Alpelisib + Navitoclax; first compound 1.265 µM,1.02
same,relative viability,Alpelisib + Navitoclax; first compound 4 µM,0.793
same,relative viability,Vemurafenib + Crizotinib; first compound 0.03162 µM,0.934
same,relative viability,Vemurafenib + Crizotinib; first compound 0.1 µM,0.978
same,relative viability,Vemurafenib + Crizotinib; first compound 0.3162 µM,0.903
same,relative viability,Vemurafenib + Crizotinib; first compound 1 µM,0.901
SW 1573,relative viability,Alpelisib + Luminespib; first compound 0.04 µM,0.175
same,relative viability,Alpelisib + Luminespib; first compound 0.1265 µM,0.215
same,relative viability,Alpelisib + Luminespib; first compound 0.4 µM,0.285
same,relative viability,Alpelisib + Luminespib; first compound 1.265 µM,0.198
same,relative viability,Alpelisib + Luminespib; first compound 4 µM,0.115
same,relative viability,Alpelisib + Dasatinib; first compound 0.04 µM,0.438
same,relative viability,Alpelisib + Dasatinib; first compound 0.1265 µM,0.458
same,relative viability,Alpelisib + Dasatinib; first compound 0.4 µM,0.672
same,relative viability,Alpelisib + Dasatinib; first compound 1.265 µM,0.364
same,relative viability,Alpelisib + Dasatinib; first compound 4 µM,0.202
same,relative viability,Alpelisib + Navitoclax; first compound 0.04 µM,0.903
same,relative viability,Alpelisib + Navitoclax; first compound 0.1265 µM,0.879
same,relative viability,Alpelisib + Navitoclax; first compound 0.4 µM,1.03
same,relative viability,Alpelisib + Navitoclax; first compound 1.265 µM,0.768
same,relative viability,Alpelisib + Navitoclax; first compound 4 µM,0.585
same,relative viability,Vemurafenib + Crizotinib; first compound 0.03162 µM,0.628
same,relative viability,Vemurafenib + Crizotinib; first compound 0.1 µM,0.941
same,relative viability,Vemurafenib + Crizotinib; first compound 0.3162 µM,1.01
same,relative viability,Vemurafenib + Crizotinib; first compound 1 µM,0.722

# Source: the supplement of paper PMC10307832
